The record followed here is US6358736B1, “Method for increasing the antigen presenting ability of leukemia cells” (The United States of America as represented by the …, priority 1995, dated 2002).

Assay [1] deals with pooled monocyte plus dendritic cell elutriation fractions. Description: FACS analysis of pooled 150-190 elutriation (APC) fractions after calcium ionophore activation. Format: cell-based, human. As to conditions: 500 ng A23187. The method, then:
Two patients were hooked up to Fenwal™ CS-3000 leukapheresis apparatus' running a Procedure 8 modification software program. Patient #1 had been previously diagnosed with colon cancer, and Patient #2 was a normal control. The Fenwal™ apparatus was configured to isolate a sample of neutrophil-depleted, platelet-rich cells from each patients' peripheral blood. After 3-5 hours of leukaphereis, the isolated blood cells from each patient were quickly spun down in a centrifuge and then rinsed in citrate buffer to remove any excess plasma, tumor related proteins or calcium.
Following the citrate buffer rinse, the cells were resuspended in EDTA-free, Ca^++/Mg^++ HBSS. The isolated cells from each patient were then subject to elutriation on a Beckman™ JE-6B elutriation rotor. Once reaching a speed of 3000 rpm, 5×10^9 cells were elutriated by pressurized air at buffer flow rates of 120, 140, 150, 160, 170, 180, 190 and 200 cc/minute.
Each fraction from both patients were immediately placed on ice to prevent cell adherence to the plastic walls of the collection vials. We coulter counted each of the fractions and discarded the r/o fraction because it had greater than a 10% contamination of neutrophils. The 150, 160, 170, 180 and 190 cc/min fractions from Patient #1 and Patient #2 were pooled then subject to calcium ionophore. The pooled fractions from each patient were divided in half, with one half being activated by 500 ng of calcium ionophore A23187 (Sigma), and one half being inactivated. From our previous experiments, we expected that the calcium ionophore treated cells would have a much higher number of dendritic cells due to conversion of monocytes to DCs. Prior to FACS analysis, we activated Patient #1's pooled fractions by incubating both the untreated and calcium ionophore treated cells for 40 hours in the presence of an autologous tumor cell lysate (the patients own tumor cells). Similarly, we activated Patient #2's pooled fractions by incubating both the untreated and calcium ionophore treated cells in the presence of keyhole limpet hemocyanin (KLH) for 40 hours.
The vast majority of cells stained in the pooled fractions were expected to be CD14+(ie: monocytes). The horizontal (X) axis of the FACS plot illustrated staining for DR, B7.1 or B72 surface antigens.
On the technique in general: A flow cytometer gives signals particle by particle.

A further assay relates to HL-60 cells. Description: FACS analysis of cell surface markers on HL-60 cells. Format: cell-based, human. The method, then: Calcium was removed from cultured cells by two methods.
The second method involved washing the cells extensively in calcium-free RPMI medium, and culturing them in the same calcium-free medium supplemented with serum that had been dialyzed against calcium-free phosphate-buffered saline.
The calmodulin kinase inhibitors KN-62 (20 uM) or KT-5926 (1 uM) was added to HL-60 cells in the presence of 188 ng/ml A23187. Twenty four hours later the level of CD80 was analyzed.
Thapsigargin was added to cultured human peripheral blood monocytes and HL-60 cells in concentrations ranging from 0 to 1000 nM. Cells were harvested 24 hours later and evaluated for the acquisition of ADC immunophenotypic characteristics by FACS analysis.
Cells were harvested after three days, irradiated (3000R), then FACS analyzed or cocultured in graded numbers with freshly prepared naive (CD45RO negative) T lymphocytes. Allosensitization was assessed by pulsing at day 4 with ^3H-TdR and harvesting 18 hours later.

Assay [2] concerns HL-60 cells cocultured with allogeneic naive T cells. The experiment in a line: T cell allosensitization by irradiated treated HL-60 cells (3H-TdR). Format: cell-based, human. As to conditions: A23187 180 ng/ml with or without rhGM-CSF 20 ng/ml and IFN-gamma 1000 u/ml, three days.
Method: Fresh allogeneic naive (CD45R0 negative) T cells were prepared and cocultured with graded numbers of irradiated (3000R) HL-60 cells treated under the above-described conditions. Four days later the cultures were pulsed with ^3H-TdR (tritiated thymidine) and harvested 18 hours later.
For assay [3], the system named is monocyte subpopulation within PBMC. The experiment in a line: FACS analysis of monocyte subpopulation in unfractionated PBMC. Format: cell-based, human. As to conditions: A23187 750 ng/ml, 40 hours. The method, then: PBMC were prepared by leukapheresis and Ficoll-Hypaque and placed in culture. Since the cells were never elutriated and no adherence step was performed, these cultures deliberately included large numbers of T, B, and NK lymphocytes as well as monocytes. The medium was our standard RPMI 10% human AB serum with antibiotics including amphotericin B. Cells were either untreated or treated for 40 hours with calcium ionophore A23187 750 ng/ml. Cells were then harvested and analyzed by FACS. Cells were stained with FITC conjugated anti-CD3, anti-CD40, anti-CD57, anti-CD 14, or the combination; in addition cells were stained with PE conjugated control antibodies, anti-B7.1, anti-B7.2, etc. In this way the effect of calcium ionophore treatment on each parameter could be clearly delineated.

The test system of another assay is WEHI-3. Description: Costimulatory molecule expression on mouse myeloid leukemia line. Format: cell-based. As to conditions: following calcium mobilization. From the text:
Myeloid leukemia cell lines display marked upregulation of molecules linked to antigen-presentation and acquire increased T cell sensitizing capacity following calcium mobilization with either calcium ionophore or thapsigargin.
(Calcium assays in cells follow changes in intracellular calcium, usually with a dye or a luminescent sensor.)

In assay [4] the test system is monocytes / dendritic cells cocultured with allogeneic T cells. The experiment in a line: Allogeneic T cell sensitization (3H-thymidine) by treated monocytes/dendritic cells. As to conditions: A23187 750 ng/ml, 40 hours.
Method: Uncultured monocytes and DC were each purified from elutriation fractions using Miltenyi microsuperparamagnetic beads; monocytes were positively selected based on CD14 expression, while dendritic cells were negatively selected based on low CD14 expression, then positively selected based on CD33 (myeloid marker) expression. Each isolated fraction was cultured for 40 hours either in medium alone or in ionophore A23187 750 ng/ml, then harvested and either FACS analyzed or microcultured with freshly prepared allogeneic T lymphocytes. Graded numbers of the cultured monocytes or dendritic cells were added to fixed numbers of T cells to compare their antigen-presenting ability. Four days later the microcultures were pulsed with ^3H-dTr and harvested 18 hours later.
Monocyte rich elutriation fractions were cultured for 40 hours with either no additives, ionophore A23187 750 ng/ml, or rhIlL-4 (1000 u/ml) and rhGM-CSF (20 ng/ml), a cytokine combination which leads monocytes to differentiate completely to dendritic cells during seven days of culture (Pickl et al, J. Immunol. 157:3850, 1996). MOMC were then harvested, irradiated (1000 rads) and cocultured in triplicate at various MOMC: T cell ratios with 10^5 allogeneic freshly prepared CD4^+ T cells in 0.2 ml RPMI with 5% AB plasma in 96 well tissue flat bottom culture plates. No cytokines were added during coculture. After 4 days [^3H]thymidine (1 μCi/well) was added and 18 hours later the wells were harvested and counted.
Monocytes in monocyte rich elutriation fractions (90-93% monocytes) were further purified using Miltenyi microsuperparagnetic beads coupled to anti-CD14. After incubation with these beads cells were applied to a magnetized column to positively select the strongly CD14^pos cells, and were enriched to >98% purity. Unpurified or purified monocytes were cultured for 40 hours in our standard culture medium with 750 ng/ml ionophore A23187, then harvested. The recovered cells were either immediately FACS analyzed or added in graded numbers to freshly prepared allogeneic T cells to assay their antigen presenting function. Four days later, the T cell cultures were pulsed with ^3H-TdR (tritiated thymidine) and harvested 18 hours later.
Setting [5] is: colon cancer patient, 40 hours with autologous tumor cell lysate.
The mark [6] stands for this setting: normal donor, 40 hours with KLH.

On to `CNc1ccc2oc(C[C@H]3O[C@@]4(CC[C@H]3C)O[C@H]([C@H](C)C(=O)c3ccc[nH]3)[C@H](C)C[C@H]4C)nc2c1C(=O)O` [A23187], for which, in assay [1] (setting [5]), the B7.1 expression result was “substantial but less uniform upregulation of B7.1”; the “HLA-DR and B7.2 expression” value is “marked upregulation of HLA-DR and B7.2”; the “conversion of cells to cocktail negative (dendritic) phenotype” value is given as “vast majority of cells were now converted to cocktail negative”. In assay [1] (setting [6]), the “HLA-DR, B7.1 and B7.2 expression” value was “markedly upregulated for HLA-DR, B7.1 and B7.2”; the “conversion of cells to cocktail (CD3, CD14, CD20, CD56) negative (dendritic) phenotype” value was “vast majority of these cells was now cocktail negative”. Moreover, in the assay with HL-60 cells (A23187 180 ng/ml, three days), the costimulatory molecule expression result was “marked upregulation of costimulatory molecules B7.1, B7.2, and ICAM-1”. In addition, the HLA-DR expression result with HL-60 cells (agent alone) is on record as “not induced”. In the assay with HL-60 cells (calcium-free RPMI and dialyzed serum), the “ablation of ionophore-induced upregulation of CD80 and CD86” value was roughly 100%. In addition, the “allostimulation of naive T cells” value in assay [2] is listed as “significantly allostimulatory”. Further, in assay [3], the CD14 expression entry is reported as “downregulation of CD14 to a background level”, the “increase of B7.1 expression” value is recorded as “seven”, the “increase of B7.2 expression” value is given as 10 fold and the “increase of CD40 expression” value came out at 7 fold. In assay [3], the “increase of CD83 expression” value was determined as 11 fold, the “increase of HLA-DR expression” value was determined as 9 fold and the “increase of ICAM-1 expression” value is 4.5 fold. The costimulatory molecule expression result with WEHI-3 is “markedly increased costimulatory molecule expression”. Further, the “T cell sensitizing capacity of purified monocytes vs prepurified fraction cells” value in assay [4] is listed as “enhanced T cell sensitizing capacity identical on a cell numbers basis”. For the same compound, the “T cell sensitizing capacity of treated monocytes (allogeneic CD4+ T cells)” value in assay [4] (graded numbers) was “much greater T cell sensitizing capacity”. Further, in assay [4] (vs untreated), the “T cell sensitizing efficiency of purified DC” value is given as “only a modest increase” and the “T cell sensitizing efficiency of purified monocytes” value is given as “a more marked enhancement”.
